Measurements reported in patent publication US10328053B2 (Gilead Sciences, Inc., priority 2016, dated 2019).

Key:
[1] = test system: pooled cryopreserved hepatocytes; assay: Hepatic Stability Assay (in vitro half-life method); assay type: in vitro ADME; design: dose or concentration left out as unconfirmed; conditions: 37° C., 1×10^6 cells/mL, 0-6 hours, LC-MS/MS, 39.5 hours is the maximum detectable half life
Procedure, shortened: (§1)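 Pooled cryopreserved hepatocytes (1×10^6 cells/mL) incubated with compound at […] test concentration, 37° C.; samples at 0, 1, 3 and 6 h quantified by LC-MS/MS. Half-life from rate of compound disappearance, scaled to predicted hepatic clearance via well-stirred model.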

[2] = as above; assay type: in vitro ADME; design: dose or concentration left out as unconfirmed; conditions: pooled cryopreserved hepatocytes, 37° C., 1×10^6 cells/mL, 0-6 hours, LC-MS/MS, 39.5 hours is the maximum detectable half life, read-out: t½ (converted)
Procedure, shortened: as §1

[3] = test system: HBV AD38 viral particles in HepG2 cell line overexpressing NTCP; assay: HBV DNA Quantification Assay; assay type: cell-based; conditions: Hepatitis B virus, HepG2, 120 h, HBV-infected HepG2-NTCP cells, 5 days incubation, HBV DNA in culture supernatant (QuantiGene 2.0); geometric mean of a minimum of four determinations
Procedure, shortened: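 NTCP-overexpressing HepG2 cells infected with AD38 virus at 4000 genome equivalents/cell for 4 days, then reseeded with serially diluted compound in DMEM, 2% FBS, 1% DMSO for 5 days.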

Row | SMILES | t½ [1] [h] | half-life [2] [h] | EC50 [3] [nM]
1 | CNC(=O)C1(NC(=O)C(=O)c2c(C)c(C(=O)Nc3ccc(F)c(F)c3)n3c2C[C@@H](F)C3)CC(F)(F)C1 [Example 49, (R)-7-(2-((3,3-difluoro-1-(methylcarbamoyl)cyclobutyl)amino)-2-oxoacetyl)-N-(3,4-difluorophenyl)-2-fluoro-6-methyl-2,3-dihydro-1H-pyrrolizine-5-carboxamide] | 39.5 | – | –
2 | CNC(=O)C1(NC(=O)C(=O)c2c(C)c(C(=O)Nc3cccc(C(F)F)c3)n3c2CCC3)CC(F)(F)C1 [Example 115, 7-(2-((3,3-difluoro-1-(methylcarbamoyl)cyclobutyl)amino)-2-oxoacetyl)-N-(3-(difluoromethyl)phenyl)-6-methyl-2,3-dihydro-1H-pyrrolizine-5-carboxamide] | 39.5 | – | –
3 | CNC(=O)C1(NC(=O)C(=O)c2c(C)c(C(=O)Nc3ccc(F)c(C(F)F)c3)n3c2CCC3)CC(F)(F)C1 [Example 116, 7-(2-((3,3-difluoro-1-(methylcarbamoyl)cyclobutyl)amino)-2-oxoacetyl)-N-(3-(difluoromethyl)-4-fluorophenyl)-6-methyl-2,3-dihydro-1H-pyrrolizine-5-carboxamide] | 39.5 | – | –
4 | CNC(=O)C1(NC(=O)C(=O)c2c(C)c(C(=O)Nc3ccc(F)c(Cl)c3)n3c2CCC3C)CC(F)(F)C1 (single isomer, unassigned) [Example 22, N-(3-chloro-4-fluorophenyl)-7-(2-((3,3-difluoro-1-(methylcarbamoyl)cyclobutyl)amino)-2-oxoacetyl)-3,6-dimethyl-2,3-dihydro-1H-pyrrolizine-5-carboxamide] | 2.7 | – | –
5 | Cc1c(C(=O)C(=O)NC2(c3c[nH]nn3)CC2)c2n(c1C(=O)Nc1ccc(F)cc1)CCC2 [Example 70, 7-(2-((1-(1H-1,2,3-triazol-4-yl)cyclopropyl)amino)-2-oxoacetyl)-N-(4-fluorophenyl)-6-methyl-2,3-dihydro-1H-pyrrolizine-5-carboxamide] | 39.5 | – | –
6 | Cc1c(C(=O)C(=O)NC2(c3cnn[nH]3)CC2)c2n(c1C(=O)Nc1ccc(F)cc1F)CCC2 [Example 93, 7-(2-((1-(1H-1,2,3-triazol-5-yl)cyclopropyl)amino)-2-oxoacetyl)-N-(2,4-difluorophenyl)-6-methyl-2,3-dihydro-1H-pyrrolizine-5-carboxamide] | – | 29.9 | 254
7 | Cc1c(C(=O)C(=O)NC2(c3c[nH]nn3)CC(F)(F)C2)c2n(c1C(=O)Nc1ccc(F)c(C(F)F)c1)CCC2 [Example 89, 7-(2-((3,3-difluoro-1-(1H-1,2,3-triazol-4-yl)cyclobutyl)amino)-2-oxoacetyl)-N-(3-(difluoromethyl)-4-fluorophenyl)-6-methyl-2,3-dihydro-1H-pyrrolizine-5-carboxamide] | – | 10.3 | 2.9
8 | Cc1c(C(=O)C(=O)N[C@H](C)C(F)(F)F)c2n(c1C(=O)Nc1ccc(F)c(Cl)c1)C(C)CC2 (single isomer, unassigned) [Example 25] | 9.1 | – | –
9 | CNC(=O)C1(NC(=O)C(=O)c2c(C)c(C(=O)Nc3ccc(F)cc3)n3c2CCC3)CC(F)(F)C1 [Example 47, 7-(2-((3,3-difluoro-1-(methylcarbamoyl)cyclobutyl)amino)-2-oxoacetyl)-N-(4-fluorophenyl)-6-methyl-2,3-dihydro-1H-pyrrolizine-5-carboxamide] | 39.5 | – | –
10 | Cc1c(C(=O)C(=O)NC2(c3c[nH]nn3)CC2)c2n(c1C(=O)Nc1ccnc(C(F)F)c1)[C@@H]1C[C@@H]1C2 [Example 56, (1aR,6aR)-5-(2-((1-(1H-1,2,3-triazol-4-yl)cyclopropyl)amino)-2-oxoacetyl)-N-(2-(difluoromethyl)pyridin-4-yl)-4-methyl-1,1a,6,6a-tetrahydrocyclopropa[b]pyrrolizine-3-carboxamide] | 39.5 | – | –
11 | Cc1c(C(=O)C(=O)NC2(c3c[nH]nn3)CC(F)(F)C2)c2n(c1C(=O)Nc1ccc(F)c(F)c1)[C@@H]1C[C@@H]1C2 [Example 42, (1aR,6aR)-5-(2-((3,3-difluoro-1-(1H-1,2,3-triazol-4-yl)cyclobutyl)amino)-2-oxoacetyl)-N-(3,4-difluorophenyl)-4-methyl-1,1a,6,6a-tetrahydrocyclopropa[b]pyrrolizine-3-carboxamide] | – | 3.5 | 2.1
12 | Cc1c(C(=O)C(=O)NC2(c3c[nH]nn3)CC2)c2n(c1C(=O)Nc1cccc(Cl)c1F)CCC2 [Example 107, 7-(2-((1-(1H-1,2,3-triazol-4-yl)cyclopropyl)amino)-2-oxoacetyl)-N-(3-chloro-2-fluorophenyl)-6-methyl-2,3-dihydro-1H-pyrrolizine-5-carboxamide] | – | 9.8 | 146
13 | Cc1c(C(=O)C(=O)NC2(c3c[nH]nn3)CC(F)(F)C2)c2n(c1C(=O)Nc1ccc(F)c(Cl)c1)[C@@H]1C[C@@H]1C2 [Example 39, (1aR,6aR)—N-(3-chloro-4-fluorophenyl)-5-(2-((3,3-difluoro-1-(1H-1,2,3-triazol-4-yl)cyclobutyl)amino)-2-oxoacetyl)-4-methyl-1,1a,6,6a-tetrahydrocyclopropa[b]pyrrolizine-3-carboxamide] | – | 4.2 | 2.1
14 | Cc1c(C(=O)C(=O)NC2(c3c[nH]nn3)CC(F)(F)C2)c2n(c1C(=O)Nc1ccc(F)cc1)C[C@H](F)C2 [Example 48, (R)-7-(2-((3,3-difluoro-1-(1H-1,2,3-triazol-4-yl)cyclobutyl)amino)-2-oxoacetyl)-2-fluoro-N-(4-fluorophenyl)-6-methyl-2,3-dihydro-1H-pyrrolizine-5-carboxamide] | – | 7.9 | 6.5
15 | Cc1c(C(=O)C(=O)NC2(c3c[nH]nn3)CC2)c2n(c1C(=O)Nc1ccc(F)c(F)c1F)CCC2 [Example 111, 7-(2-((1-(1H-1,2,3-triazol-4-yl)cyclopropyl)amino)-2-oxoacetyl)-6-methyl-N-(2,3,4-trifluorophenyl)-2,3-dihydro-1H-pyrrolizine-5-carboxamide] | – | 10.1 | 154
16 | Cc1c(C(=O)C(=O)NC2(C(=O)N3CC4(C3)CN(S(C)(=O)=O)C4)CC(F)(F)C2)c2n(c1C(=O)Nc1ccc(F)c(Cl)c1)CCC2 [Example 28, N-(3-chloro-4-fluorophenyl)-7-(2-((3,3-difluoro-1-(6-(methylsulfonyl)-2,6-diazaspiro[3.3]heptane-2-carbonyl)cyclobutyl)amino)-2-oxoacetyl)-6-methyl-2,3-dihydro-1H-pyrrolizine-5-carboxamide] | – | 11.8 | 112
17 | Cc1c(C(=O)C(=O)NC2(c3ccccc3)CC2)c2n(c1C(=O)Nc1ccc(F)c(Cl)c1)CCC2 [Example 66, N-(3-chloro-4-fluorophenyl)-6-methyl-7-(2-oxo-2-((1-phenylcyclopropyl)amino)acetyl)-2,3-dihydro-1H-pyrrolizine-5-carboxamide] | – | 1.4 | 6.5
18 | Cc1c(C(=O)C(=O)NC2(c3cnn[nH]3)CC(F)(F)C2)c2n(c1C(=O)Nc1ccc(F)cc1)[C@@H]1C[C@@H]1C2 [Example 100, (1aR,6aR)-5-(2-((3,3-difluoro-1-(1H-1,2,3-triazol-5-yl)cyclobutyl)amino)-2-oxoacetyl)-N-(4-fluorophenyl)-4-methyl-1,1a,6,6a-tetrahydrocyclopropa[b]pyrrolizine-3-carboxamide] | – | 3.1 | 3.7
19 | Cc1c(C(=O)C(=O)NC2(c3c[nH]nn3)CC2)c2n(c1C(=O)Nc1ccc(F)c(C(F)F)c1)CCC2 [Example 77, 7-(2-((1-(1H-1,2,3-triazol-4-yl)cyclopropyl)amino)-2-oxoacetyl)-N-(3-(difluoromethyl)-4-fluorophenyl)-6-methyl-2,3-dihydro-1H-pyrrolizine-5-carboxamide] | – | 22.1 | 19
20 | CNC(=O)C1(NC(=O)C(=O)c2c(C)c(C(=O)Nc3cc(F)c(F)c(F)c3)n3c2CCC3)CC(F)(F)C1 [Example 36, 7-(2-((3,3-difluoro-1-(methylcarbamoyl)cyclobutyl)amino)-2-oxoacetyl)-6-methyl-N-(3,4,5-trifluorophenyl)-2,3-dihydro-1H-pyrrolizine-5-carboxamide] | – | 26.5 | 24
21 | Cc1c(C(=O)C(=O)NC2(c3c[nH]nn3)CC(F)(F)C2)c2n(c1C(=O)Nc1ccnc(C(F)F)c1F)[C@@H]1C[C@@H]1C2 [Example 80, (1aR,6aR)-5-(2-((3,3-difluoro-1-(1H-1,2,3-triazol-4-yl)cyclobutyl)amino)-2-oxoacetyl)-N-(2-(difluoromethyl)-3-fluoropyridin-4-yl)-4-methyl-1,1a,6,6a-tetrahydrocyclopropa[b]pyrrolizine-3-carboxamide] | – | 6.3 | 8.7
22 | Cc1c(C(=O)C(=O)NC2(c3c[nH]nn3)CC(F)(F)C2)c2n(c1C(=O)Nc1ccc(F)c(F)c1)CCC2 [Example 31, 7-(2-((3,3-difluoro-1-(1H-1,2,3-triazol-4-yl)cyclobutyl)amino)-2-oxoacetyl)-N-(3,4-difluorophenyl)-6-methyl-2,3-dihydro-1H-pyrrolizine-5-carboxamide] | – | 8.6 | 3.2
23 | CNC(=O)C(C)(C)NC(=O)C(=O)c1c(C)c(C(=O)Nc2cc(F)c(F)c(F)c2)n2c1CCC2 [Example 83, 6-methyl-7-(2-((2-methyl-1-(methylamino)-1-oxopropan-2-yl)amino)-2-oxoacetyl)-N-(3,4,5-trifluorophenyl)-2,3-dihydro-1H-pyrrolizine-5-carboxamide] | – | 19.2 | 199
